Experiment: Plasma octreotide levels by RIA
Assay type: in vivo, human
Protocol: Norway Summary Fourteen patients suffering from advanced colorectal (n = 7), pancreatic (n = 4) or gastric (n = 3) carcinomas received treatment with microencapsulated octreotide pamoate 90 mg i.m. every 4 weeks (n = 4), 160 mg i.m. every 4 weeks (n = 4) or 160 mg i.m. every 2 weeks (n = 6). […] In this study we evaluate the tolerability. clinical effects, pharmacokinetics and effects on plasma IGF-I and -II of a new microencapsulated formulation of octreotide pamoate in patients suffering from gastrointestinal and pancreatic carci- nomas. […] Thus. apart from deter- mining plasma IGF-I and -HI together with IGFBP-1 and -3 with radioimmunoassay (RIA). we measured IGFBPs using Western ligand blotting and the functional status of IGFBP-3 using immunoblotting. […] PATIENTS AND METHODS Patients Fourteen patients (eight men and six A-omen) with progressive locally advanced and/or metastatic adenocarcinomas of abdominal origin were studied (Table 1). Any other svstemic anti-cancer therapy had been terminated at least 4 weeks before inclusion in the study.

In the case of `C[C@@H](O)[C@@H]1NC(=O)[C@H](CCCCN)NC(=O)[C@@H](Cc2c[nH]c3ccccc23)NC(=O)[C@H](Cc2ccccc2)NC(=O)[C@@H](NC(=O)[C@H](N)Cc2ccccc2)CSSC[C@@H](C(=O)N[C@H](CO)[C@@H](C)O)NC1=O` [octreotide], the “ratio of peak octreotide level at first day of injection to plasma level just before the next injection” value (all cohorts, i.m. depot, range, generally two to five times higher, data not shown) is reported as 2.2-9.9, the “lowest plasma level of octreotide observed at any time during treatment” value (individual patients, all cohorts, RIA) is reported as 3.4 ng/mL and the “highest plasma octreotide level” value (one patient in cohort 3 (160 mg i.m. every 2 weeks), long-term treatment > 6 months, at day 13, subsequent gradual decline) is reported as 98.9 ng/mL.

Source: publication PMC2062954, “Microencapsulated octreotide pamoate in advanced gastrointestinal and pancreatic cancer: a phase I study” (British Journal of Cancer, 1998)
